Assay results published in patent US8658646B2, “Pyrrolopyrazine kinase inhibitors” (Hoffmann-LaRoche Inc., priority 2011, dated 2014).
pIC50: −log10 of the molar value.

What follows are molecules tested against T1, JAK3: Recombinant human kinase domain (Homo sapiens, UniProt P52333) (assay: Determination of IC50 of Janus Kinase (JAK) inhibition, radioactive end-point 33P-ATP assay, JAK3). Conditions: ATP 1.5 uM, peptide 50 uM, 20 minutes, read-out: JAK3-INHIB-DR/v1~NO ADDITIVE~Enzyme_Conc = 100.
T1 construct: JAK3: Recombinant human kinase domain from Millipore (Cat #14-629) or prepared; purchased Millipore 14-629
Format: biochemical

T1 sequence (P52333 822-1111 limits assumed): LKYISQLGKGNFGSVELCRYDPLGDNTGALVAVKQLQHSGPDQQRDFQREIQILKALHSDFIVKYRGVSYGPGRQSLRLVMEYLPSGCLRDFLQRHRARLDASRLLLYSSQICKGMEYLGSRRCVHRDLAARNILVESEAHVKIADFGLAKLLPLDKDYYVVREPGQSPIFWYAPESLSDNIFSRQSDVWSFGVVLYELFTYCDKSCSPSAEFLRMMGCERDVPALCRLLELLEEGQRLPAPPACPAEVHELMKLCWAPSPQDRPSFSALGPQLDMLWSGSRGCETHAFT

SMILES	pIC50
Cn1nc(-c2cnc3[nH]cc(C(=O)N[C@H](c4ccc(Br)cc4)C(F)(F)F)c3n2)c2ccc(F)cc21 [Example I-211, 2-(6-Fluoro-1-methyl-1H-indazol-3-yl)-5H-pyrrolo[2,3-b]pyrazine-7-carboxylic acid [(R)-1-(4-bromo-phenyl)-2,2,2-trifluoro-ethyl)-amide]	< 6.00
C[C@H](NC(=O)c1c[nH]c2ncc(-c3nn(C)c4ccc(Cl)cc34)nc12)C(C)(C)C [Example I-11, 2-(5-Chloro-1-methyl-1H-indazol-3-yl)-5H-pyrrolo[2,3-b]pyrazine-7-carboxylic acid ((S)-1,2,2-trimethyl-propyl)-amide]	8.75
CC[C@@H](COC)NC(=O)c1c[nH]c2ncc(-c3nn(C)c4cc(Cl)ccc34)nc12 [Example I-173, 2-(6-Chloro-1-methyl-1H-indazol-3-yl)-5H-pyrrolo[2,3-b]pyrazine-7-carboxylic acid ((S)-1-methoxymethyl-propyl)-amide]	8.45
Cn1nc(-c2cnc3[nH]cc(C(=O)N[C@@H]4CCN(Cc5ccccc5)C4)c3n2)c2ccc(F)cc21 [Example I-213, 2-(6-Fluoro-1-methyl-1H-indazol-3-yl)-5H-pyrrolo[2,3-b]pyrazine-7-carboxylic acid ((R)-1-benzyl-pyrrolidin-3-yl)-amide]	7.12
C[C@@H](NC(=O)c1c[nH]c2ncc(-c3nn(C)c4cc(C(F)(F)F)ccc34)nc12)C(=O)N1CC(C#N)C1 [Example I-18, 2-(1-Methyl-6-trifluoromethyl-1H-indazol-3-yl)-5H-pyrrolo[2,3-b]pyrazine-7-carboxylic acid [(R)-2-(3-cyano-azetidin-1-yl)-1-methyl-2-oxo-ethyl]-amide]	8.94
CC(NC(=O)c1c[nH]c2ncc(-c3nn(C)c4cc(F)ccc34)nc12)[C@H]1C[C@@H](C#N)C1 (stereo partly drawn) [Example I-76, 2-(6-Fluoro-1-methyl-1H-indazol-3-yl)-5H-pyrrolo[2,3-b]pyrazine-7-carboxylic acid [1-(cis-3-cyano-cyclobutyl)-ethyl]-amide]	7.90
Cn1nc(-c2cnc3[nH]cc(C(=O)NC4CCCC(=O)C4)c3n2)c2ccc(Cl)cc21 (stereo not drawn) [Example I-147, 2-(6-Chloro-1-methyl-1H-indazol-3-yl)-5H-pyrrolo[2,3-b]pyrazine-7-carboxylic acid (3-oxo-cyclohexyl)-amide]	7.42
C[C@@H](NC(=O)c1c[nH]c2ncc(-c3nn(C)c4cc(Cl)ccc34)nc12)C(=O)N1CC(F)C1 [Example I-120, 2-(6-Chloro-1-methyl-1H-indazol-3-yl)-5H-pyrrolo[2,3-b]pyrazine-7-carboxylic acid [(R)-2-(3-fluoro-azetidin-1-yl)-1-methyl-2-oxo-ethyl)-amide]	8.56
C[C@@H](NC(=O)c1c[nH]c2ncc(-c3nn(C)c4cc(F)ccc34)nc12)[C@@H]1CCCO1 [Example I-63, 2-(6-Fluoro-1-methyl-1H-indazol-3-yl)-5H-pyrrolo[2,3-b]pyrazine-7-carboxylic acid [(R)-(S)-1-(tetrahydro-furan-2-yl)-ethyl]-amide]	8.18
CO[C@@H](C)CNC(=O)c1c[nH]c2ncc(-c3nn(C)c4cc(F)ccc34)nc12 [Example I-135, 2-(6-Fluoro-1-methyl-1H-indazol-3-yl)-5H-pyrrolo[2,3-b]pyrazine-7-carboxylic acid ((S)-2-methoxy-propyl)-amide]	8.16
C[C@H](CCC#N)NC(=O)c1c[nH]c2ncc(-c3nn(C)c4cc(Cl)ccc34)nc12 [Example I-205, 2-(6-Chloro-1-methyl-1H-indazol-3-yl)-5H-pyrrolo[2,3-b]pyrazine-7-carboxylic acid ((R)-3-cyano-1-methyl-propyl)-amide]	7.74
C[C@@H](NC(=O)c1c[nH]c2ncc(-c3nn(C)c4cc(Cl)ccc34)nc12)C(=O)N1CC[C@H](F)C1 [Example I-118, 2-(6-Chloro-1-methyl-1H-indazol-3-yl)-5H-pyrrolo[2,3-b]pyrazine-7-carboxylic acid [(R)-2-((S)-3-fluoro-pyrrolidin-1-yl)-1-methyl-2-oxo-ethyl]-amide]	8.70

Further lines, results first:

pIC50	SMILES
7.56	Cn1nc(-c2cnc3[nH]cc(C(=O)N[C@@H]4CCN(CC#N)C4)c3n2)c2ccc(F)cc21 [Example I-214, 2-(6-Fluoro-1-methyl-1H-indazol-3-yl)-5H-pyrrolo[2,3-b]pyrazine-7-carboxylic acid ((R)-1-cyanomethyl-pyrrolidin-3-yl)-amide]
9.21	COC[C@H](C)NC(=O)c1c[nH]c2ncc(-c3nn(Cc4ccccn4)c4cc(F)ccc34)nc12 [Example I-240, 2-(6-Fluoro-1-pyridin-2-ylmethyl-1H-indazol-3-yl)-5H-pyrrolo[2,3-b]pyrazine-7-carboxylic acid ((S)-2-methoxy-1-methyl-ethyl)-amide]
8.38	C[C@@H](NC(=O)c1c[nH]c2ncc(-c3nn(CC(=O)N(C)C)c4cc(Cl)ccc34)nc12)C(=O)N1CC(C#N)C1 [Example I-227, 2-(6-Chloro-1-dimethylcarbamoylmethyl-1H-indazol-3-yl)-5H-pyrrolo[2,3-b]pyrazine-7-carboxylic acid [(R)-2-(3-cyano-azetidin-1-yl)-1-methyl-2-oxo-ethyl]-amide]
9.31	COC[C@H](C)NC(=O)c1c[nH]c2ncc(-c3nn(Cc4cccnc4)c4cc(Cl)ccc34)nc12 [Example I-235, 2-(6-Chloro-1-pyridin-3-ylmethyl-1H-indazol-3-yl)-5H-pyrrolo[2,3-b]pyrazine-7-carboxylic acid ((S)-2-methoxy-1-methyl-ethyl)-amide]
8.66	C[C@@H](NC(=O)c1c[nH]c2ncc(-c3cnc4ccccn34)nc12)C(=O)N1CC(C#N)C1 [Example I-220, 2-Imidazo[1,2-a]pyridin-3-yl-5H-pyrrolo[2,3-b]pyrazine-7-carboxylic acid [(R)-2-(3-cyano-azetidin-1-yl)-1-methyl-2-oxo-ethyl]-amide]
8.48	C[C@@H](NC(=O)c1c[nH]c2ncc(-c3nn(CCN(C)C)c4cc(Cl)ccc34)nc12)C(=O)N1CC(C#N)C1 [Example I-229, 2-[6-Chloro-1-(2-dimethylamino-ethyl)-1H-indazol-3-yl]-5H-pyrrolo[2,3-b]pyrazine-7-carboxylic acid [(R)-2-(3-cyano-azetidin-1-yl)-1-methyl-2-oxo-ethyl]-amide]
7.63	C[C@@H](NC(=O)c1c[nH]c2ncc(-c3nn(C)c4cc(F)ccc34)nc12)c1cccc(C#N)c1 [Example I-217, 2-(6-Fluoro-1-methyl-1H-indazol-3-yl)-5H-pyrrolo[2,3-b]pyrazine-7-carboxylic acid [(R)-1-(3-cyano-phenyl)-ethyl]-amide]
9.09	COC[C@H](C)NC(=O)c1c[nH]c2ncc(-c3nn(CCN4CCOCC4)c4cc(Cl)ccc34)nc12 [Example I-236, 2-[6-Chloro-1-(2-morpholin-4-yl-ethyl)-1H-indazol-3-yl]-5H-pyrrolo[2,3-b]pyrazine-7-carboxylic acid ((S)-2-methoxy-1-methyl-ethyl)-amide]
8.00	COC[C@H](C)NC(=O)c1c[nH]c2ncc(-c3cnc4cc(C#N)ccn34)nc12 [Example I-222, 2-(7-Cyano-imidazo[1,2-a]pyridin-3-yl)-5H-pyrrolo[2,3-b]pyrazine-7-carboxylic acid ((S)-2-methoxy-1-methyl-ethyl)-amide]
